In patent US20160222014A1, “COMPOUNDS FOR REGULATING FAK AND/OR SRC PATHWAYS” (ASANA BIOSCIENCES, LLC, priority 2013, published 2016):

molecular target: T1, Phospho Src(Y416) (Homo sapiens, UniProt P12931); test: Phospho Src(Y416) Sandwich ELISA; assay type: cell-based; conditions: Panc1; read-out: pSrc EC50 (μM) Panc1
T1 construct: endogenous in cells; host or cells: Panc1
Description: E. Phospho Src(Y416) Sandwich ELISA
Phospho Src(Y416) Sandwich ELISA kit was obtained from Cell Signaling Tech.
(i) Reagent Preparation • 1. All microwell strips were brought to rt before use. • 2. 1× Wash Buffer was prepared by diluting 20× Wash Buffer (included in each PathScan® Sandwich ELISA Kit) in MilliQ® water or equivalently purified water. • 3. 1× Cell Lysis Buffer from CST #9803: 20 mM Tris (pH 7.5), 150 mM NaCl, 1 mM ethylene diamine tetraacetate (EDTA), 1 mM ethylene glycol-bis(2-aminoethyl)-N,N,N′,N′-tetraacetic acid (EGTA), 1% Triton™ X-100, 2.5 mM sodium pyrophosphate, 1 mM b-glycerophosphate, 1 mM Na3VO4, 1 μg/mL leupeptin. This buffer was stored at 4° C. for short-term use (1-2 weeks).
(ii) Preparing Cell Lysates • 1. The media was aspirated. The cells were treated by adding fresh media containing inhibitor for 1 h. The compound of Example 214 was used as reference. • 2. The cells were harvested under non-denaturing conditions by removing media and rinsing cells once with ice-cold PBS. • 3. PBS was removed, 0.5 mL ice-cold 1× Cell Lysis Buffer plus 1 mM phenylmethylsulfonylfluoride (PMSF) was added to each plate (10 cm in diameter) and the plate incubated on ice for 5 min. • 4. The cells were scraped off of the plate, transferred to an appropriate tube, and kept on ice. • 5. The lysates were sonicated on ice. • 6. Microcentrifugation was performed for 10 min at 4° C. and the supernatant transferred to a new tube. The supernatant was the cell lysate and was stored at −80° C. in single-use aliquots.
(iii) Test Procedure • 1. After the microwell strips reached rt, the required number of microwells were broken off. The microwells were placed in the strip holder. Unused microwells were resealed and stored at 4° C. immediately. • 2. 100 μL of Sample Diluent (supplied in each PathScan® Sandwich ELISA Kit, blue color) was added to a micro centrifuge tube. 100 μL of cell lysate was transferred into the tube and vortexed for a few seconds. […] Individual data sheets for each kit provided information regarding an appropriate dilution factor for lysates and kit assay results. However, dilution factors were titrated when specific cell lysates are used. • 3. 100 μL of each diluted cell lysate were added to the appropriate well. It was then sealed with tape and pressed firmly onto top of microwells. The plate was incubated for 2 h at 37° C. Alternatively, the plate was incubated overnight at 4° C., which gave the best detection of target protein. • 4. The tape was gently removed and the wells washed: • a. The plate contents were discarded into a receptacle. • b. Each well was washed 4 times with 1× Wash Buffer, 200 μL. • c. For each wash, plates were struck on fresh towels hard enough to remove the residual solution in each well, but wells were not allowed to completely dry at any time. • d. The underside of all wells was cleaned with a lint-free tissue. • 5. 100 μL of Detection Antibody (green color) was added to each well, sealed with tape and the plate incubated for 1 h at 37° C. • 6. The wash procedure was repeated as in Step 4. • 7. 100 μL of HRP-linked secondary antibody (red color) was added to each well, sealed with tape and the plate incubated plate for 30 min at 37° C. • 8. The wash procedure was repeated as in Step 4. • 9. 100 μL of TMB Substrate was added to each well, sealed with tape and the plate incubated for 10 min at 37° C. or 30 min at 25° C. • 10. 100 μL of STOP Solution was added to each well and shaken gently for a few seconds. Initial color of positive reaction was blue, which changed to yellow upon addition of STOP Solution. • 11. The results were read. • a. Visual Determination—read within 30 min after adding STOP Solution. • b. Spectrophotometric Determination—the underside of wells were wiped with a lint-free tissue and absorbance read at 450 nm within 30 min after adding STOP Solution.

T1 sequence (P12931 whole entry): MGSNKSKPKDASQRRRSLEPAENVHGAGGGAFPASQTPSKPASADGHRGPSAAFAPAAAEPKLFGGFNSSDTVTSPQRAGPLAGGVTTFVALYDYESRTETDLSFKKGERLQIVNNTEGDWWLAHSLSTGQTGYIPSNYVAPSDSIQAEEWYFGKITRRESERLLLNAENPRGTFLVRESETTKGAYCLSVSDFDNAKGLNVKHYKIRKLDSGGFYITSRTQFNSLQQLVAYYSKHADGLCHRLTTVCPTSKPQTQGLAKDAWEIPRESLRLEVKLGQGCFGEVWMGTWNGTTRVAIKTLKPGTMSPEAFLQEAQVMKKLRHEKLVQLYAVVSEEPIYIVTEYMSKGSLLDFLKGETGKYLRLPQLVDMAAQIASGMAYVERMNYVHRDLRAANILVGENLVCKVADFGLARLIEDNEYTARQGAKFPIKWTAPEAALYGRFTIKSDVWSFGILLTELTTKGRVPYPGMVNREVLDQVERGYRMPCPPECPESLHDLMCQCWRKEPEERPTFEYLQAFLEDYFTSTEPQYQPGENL

EC50, > 1 µM:
O=C1CCc2cc(Nc3ncc4cnn(Cc5ccccc5OC(F)F)c4n3)ccc2N1 [Example 21]
FC(F)Oc1ccccc1Cn1ccc2cnc(Nc3ccc4ncsc4c3)nc21 [Example 36]
O=S(=O)(c1cccc2nsnc12)n1ccc2cnc(Nc3ccc(N4CCNCC4)cc3)nc21 [Example 253]
O=C1CCc2cc(Nc3ncc4ccn(S(=O)(=O)c5cccc6cccnc56)c4n3)ccc2N1 [Example 169]
Cn1cc(Nc2ncc3ccn(S(=O)(=O)c4cccc5cccnc45)c3n2)cn1 [Example 318]
CC(=O)Nc1cccc(Nc2cc3c(cn2)cnn3Cc2ccccc2OC(F)F)c1 [Example 64]
CN(c1ncccc1Cn1ccc2cnc(Nc3ccc(NCCO)cc3)nc21)S(C)(=O)=O [Example 201]
CN(c1ncccc1Cn1ncc2cnc(Nc3ccc4[nH]c(=O)[nH]c4c3)cc21)S(C)(=O)=O [Example 142]
CN(c1ncccc1Cn1ccc2cnc(Nc3ccc(N4CCCC4CO)cc3)nc21)S(C)(=O)=O (stereo not drawn) [Example 536]
COc1ccccc1S(=O)(=O)n1ncc2cnc(Nc3ccc(N4CCNCC4)cc3)nc21 [Example 335]
FC(F)Oc1ccccc1Cn1ncc2cnc(Nc3ccc4ncsc4c3)cc21 [Example 82]
CN(c1ncccc1Cn1ncc2cnc(Nc3ccc4c(c3)CCC(=O)N4)nc21)S(C)(=O)=O [Example 202]
